Results taken from patent US10532053B2, “Histone deacetylase inhibitor, and preparation method and use thereof” (GUANGDONG ZHONGSHENG PHARMACEUTICAL CO., LTD, priority 2015, dated 2020).

Assays:
B-cell lymphoma Ramos = assay: Cell proliferative activity (MTT / cck-8); assay type: cell-based; settings: Homo sapiens, read-out: Half-Inhibitory Concentration IC50 Ramos
Description: (§1) Tumor cell line A375: human melanoma cell; H460: lung adenocarcinoma cell; Hela: human cervical cancer cell; HepG2: human liver cancer cell; and SKOV-3: human ovarian cancer cell, were all purchased from ATCC and cultured to logarithmic phase according to the cultivation protocol recommended by ATCC. The cells in the logarithmic phase were plated onto a 96-well plate at 2000-3000 cells/well; in the case of adherent cells, the cells should be adherent to the wall. […] After that, the cell proliferative activity was determined by MTT assay for the tumor cells representing the solid tumor model and by cck-8 assay for the tumor cells representing the hematologic tumor model.

[1] = system: Human cervical cancer cell Hela; assay: Cell proliferative activity (MTT / cck-8); assay type: cell-based; settings: Cervical cancer, Table 5, read-out: Half-Inhibitory Concentration IC50 Hela
Description: as §1

[2] = system: Human liver cancer cell HepG2; assay: Cell proliferative activity (MTT / cck-8); assay type: cell-based; settings: Liver cancer, Table 5, read-out: Half-Inhibitory Concentration IC50 HepG2
Description: as §1

[3] = system: Human lung cancer cell H460; assay: Cell proliferative activity (MTT / cck-8); assay type: cell-based; settings: NCI-H460, Lung cancer, Table 5, read-out: Half-Inhibitory Concentration IC50 H460
Description: as §1

[4] = system: Human ovarian cancer cell SKOV-3; assay: Cell proliferative activity (MTT / cck-8); assay type: cell-based; settings: SK-OV-3, Ovarian cancer, Table 5, read-out: Half-Inhibitory Concentration IC50 SKOV-3
Description: as §1

Leukemia K562 = assay: Cell proliferative activity (MTT / cck-8); assay type: cell-based; settings: Homo sapiens, read-out: Half-Inhibitory Concentration IC50 K562
Description: as §1

Leukemia MV4-11 = assay: Cell proliferative activity (MTT / cck-8); assay type: cell-based; settings: Homo sapiens, read-out: Half-Inhibitory Concentration IC50 MV4-11
Description: as §1

[5] = system: Multiple myeloma RPMI8226; assay: Cell proliferative activity (MTT / cck-8); assay type: cell-based; settings: Homo sapiens, RPMI-8226, read-out: Half-Inhibitory Concentration IC50 RPMI8226
Description: as §1

Multiple myeloma U266 = assay: Cell proliferative activity (MTT / cck-8); assay type: cell-based; settings: Homo sapiens, U-266, read-out: Half-Inhibitory Concentration IC50 U266
Description: as §1

Ovarian cancer A2780s = assay: Cell proliferative activity (MTT / cck-8); assay type: cell-based; settings: Homo sapiens, read-out: Half-Inhibitory Concentration IC50 A2780s
Breast cancer SKBR3 = assay: Cell proliferative activity (MTT / cck-8); assay type: cell-based; settings: Homo sapiens, SK-BR-3, read-out: Half-Inhibitory Concentration IC50 SKBR3
Lung cancer A549 = assay: Cell proliferative activity (MTT / cck-8); assay type: cell-based; settings: Homo sapiens, read-out: Half-Inhibitory Concentration IC50 A549
Colon cancer HCT116 = assay: Cell proliferative activity (MTT / cck-8); assay type: cell-based; settings: Homo sapiens, HCT-116, read-out: Half-Inhibitory Concentration IC50 HCT116
Colon cancer HT29 = assay: Cell proliferative activity (MTT / cck-8); assay type: cell-based; settings: Homo sapiens, HT-29, read-out: Half-Inhibitory Concentration IC50 HT29
HBL-1 cells = assay: Therapeutic effect on the B-cell lymphoma HBL-1 subcutaneous tumor model; assay type: in vivo, NOD/SCID mice; settings: HBL-1 model, 40 mg/kg intragastrically once every other day, 9 times; vs solvent group
Ramos cells = assay: Therapeutic effect on the B-cell lymphoma Ramos subcutaneous tumor model; assay type: in vivo, NOD/SCID mice; settings: 40 mg/kg intragastrically once every other day, 6 times, vs solvent group
HDAC10 = HDAC10 (Homo sapiens, UniProt Q969S8); settings: read-out: IC50 HDAC10; Table 4, Class IIb
Description: The HDAC inhibitory activity was determined by fluorescence-coupled acetylated peptide substrate assay (Lys-Ac-AMC). HDAC1 protein was purchased from BPS Bioscience, and the reaction buffer system was a modified tris(hydroxymethyl)aminomethane buffer (pH 7.0). The small molecule compounds of the present invention were prepared by being dissolved in 100% DMSO. HDAC was prepared in a buffer at a certain concentration as an enzyme solution; trypsin and fluorescent group 4-amino-7-coumarin coupled-acetylated peptide (Ac-peptide) substrate were prepared in a buffer at a certain concentration as a substrate solution. The compounds were added into the reaction wells in a 384-well plate at a designed concentration of 10 μM, 1 μM, 0.5 μM, 0.1 μM, 0.05 μM, 0.01 μM, 0.005 μM, 0.001 μM, and 0.00005 μM, respectively, and then 15 μl of the HDAC solution was added into the reaction wells (15 μl of blank buffer to the control well). […] The results were analyzed by GraphPad Prism software and IC50 values were calculated according to the formula: Y=Background Data+(Top Data−Background Data)/(1+10^((Log IC50−X) a curve slope)), where Y: the inhibition rate (%) and X: the concentration of the compound.

[6] = system: acetylation level of HDAC substrate (Ac-α-tubulin, Ac-H3); assay: Western blot assay for detecting the level of acetylated proteins; assay type: cell-based; settings: HCT116 cells (FIG. 3) or MV4-11 cells (FIG. 4)
Description: The compounds or the positive control compound were added into each group of cells already adherent to the walls (2×10^6 HCT116 cells or 5×10^6 MV4-11 cells) at a designed concentration. After treatment for 4 hours, trypsin was added for digestion, followed by collecting the cells. After washing with cold PBS twice, the cells were lysed by adding RIPA lysis solution (which was purchased from Beyotime, Art. No.: P0013B, adding 1 mM PMSF before use), allowing for lysis on ice for 30 minutes while vortexing at intervals. The lysate was subjected to ultrasonic treatment on an ice bath (ultrasonicated for 3 seconds and repeated 5 times for each group at an interval of 10 seconds). The supernatant was collected by centrifugation at 12,000 g for 20 min at 4° C. and then mixed the SDS-PAGE loading buffer (purchased from Beyotime, Art. No.: P0015F). The mixture was heated in boiling water for 5 minutes to obtain a protein sample. The protein concentration of the sample was quantified by BCA method. 20 […] total protein from each group was subjected to 15% SDS-PAGE electrophoresis, and 5μl of a pre-stained protein marker (purchased from Thermo, Art. No.: 26616) was loaded to an additional selective lane in order to compare protein molecular weights as well as to detect the transmembrane result. When the bromophenol blue bands ran close to the bottom of the gel, the electrophoresis was terminated and the proteins on the gel were transferred to a PVDF membrane at a pore size of 0.22 μm. After 1.5 hours of transmembrane at a constant current of 200 mA, the PVDF membrane was removed and blocked in 5% skimmed milk for 1 hour. After completion of blocking, the membrane was incubated with the primary antibody (Ac-H3 antibody was purchased from Santa Cruz, Art. No.: sc-56616; Ac-α-tubulin antibody was purchased from Santa Cruz, Art. No.: sc-23950) overnight at 4° C. and then washed with TBS/T for 10 minutes for 3 times. The membrane was incubated with the horseradish peroxidase-coupled secondary antibody at room temperature for 1 hour, and then washed with TBS/T for 10 minutes for 3 times. After washing with TBS for 5 minutes, the membrane was exposed and developed by using a film in the darkroom. The detected GAPDH protein was an internal reference protein (GAPDH antibody was purchased from ZSGB-Bio, Art. No.: TA-08).

A2780s cells = settings: A2780s model, 100 mg/kg intragastrically once every other day, 16 times
[7] = clinical data; cited from earlier work

Sequence of HDAC10 (Q969S8 whole entry): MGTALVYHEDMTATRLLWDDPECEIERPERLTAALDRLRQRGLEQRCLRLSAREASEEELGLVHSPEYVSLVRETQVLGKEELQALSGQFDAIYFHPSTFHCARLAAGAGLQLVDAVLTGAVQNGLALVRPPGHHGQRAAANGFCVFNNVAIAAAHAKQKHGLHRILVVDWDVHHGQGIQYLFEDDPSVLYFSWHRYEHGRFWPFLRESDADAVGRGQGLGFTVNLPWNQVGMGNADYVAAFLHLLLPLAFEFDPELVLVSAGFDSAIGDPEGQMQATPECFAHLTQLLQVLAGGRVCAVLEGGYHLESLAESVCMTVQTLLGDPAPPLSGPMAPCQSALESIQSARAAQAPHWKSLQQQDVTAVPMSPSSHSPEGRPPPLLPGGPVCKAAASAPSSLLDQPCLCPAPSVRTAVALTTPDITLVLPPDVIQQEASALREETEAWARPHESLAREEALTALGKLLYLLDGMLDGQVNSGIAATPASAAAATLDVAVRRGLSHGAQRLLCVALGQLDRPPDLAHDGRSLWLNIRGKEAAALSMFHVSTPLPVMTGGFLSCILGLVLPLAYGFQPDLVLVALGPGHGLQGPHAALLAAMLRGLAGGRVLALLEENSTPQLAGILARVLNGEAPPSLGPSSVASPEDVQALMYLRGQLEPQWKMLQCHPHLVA

O=C(CCCCCCNC(=O)c1cnc(N(c2ccccc2)c2ccccc2)nc1)NO [ACY-1215, reference compound]
IC50 (B-cell lymphoma Ramos): > 5 µM | IC50 [1]: > 5 µM | IC50 [2]: > 5 µM | IC50 [3]: > 5 µM | IC50 [4]: > 5 µM | IC50 (Leukemia K562): > 5 µM | IC50 (Leukemia MV4-11): > 5 µM | IC50 [5]: 1.47 ± 0.31 µM | IC50 (Multiple myeloma U266): > 5 µM | IC50 (Ovarian cancer A2780s): > 5 µM | IC50 (Breast cancer SKBR3): > 5 µM | IC50 (Lung cancer A549): > 5 µM | IC50 (Colon cancer HCT116): > 5 µM | IC50 (Colon cancer HT29): > 5 µM | tumor inhibitory rate (HBL-1 cells): 26.75% | tumor inhibitory rate (Ramos cells): no inhibitory effects of tumor growth | IC50 (HDAC10): 0.194 ± 0.054 µM

O=C(CCCCCCC(=O)Nc1ccccc1)NO [SAHA, reference compound]
acetylation of H3 (Ac-H3) [6]: up-regulate acetylation of tubulin and H3 | acetylation of α-tubulin [6]: up-regulate acetylation of tubulin and H3 | death of mice during the experiment (A2780s cells): one mouse died | toxic side effects [7]: thrombosis and neurotoxicity
